This is an account of results in the supplement of paper PMC10307832.

Compound in the assay “Bicalutamide + Foretinib”: CC(O)(CS(=O)(=O)c1ccc(F)cc1)C(=O)Nc1ccc(C#N)c(C(F)(F)F)c1 [Bicalutamide] + COc1cc2c(Oc3ccc(NC(=O)C4(C(=O)Nc5ccc(F)cc5)CC4)cc3F)ccnc2cc1OCCCN1CCOCC1 [Foretinib] (partner 0.25 µM)
Description: relative viability (nuclei count vs DMSO), 5 days (fraction); higher = more cells survive. The method in brief:
(§1)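 Cells from lung cancer lines were seeded into 1536-well plates and, one day later, dosed by pin tool. Treatments were either a single drug or a fixed dose of an anchor drug with five library-drug doses (not always all listed) in √10 steps. After 5 days, nuclei were stained in a one-step fixation (final 0.05% Triton X-100, 1% formaldehyde, 1 ug/ml Hoechst) and counted on 4× images, and relative viability is the treated-to-vehicle nuclei ratio, as the median of duplicate plates.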

Compound in assay [1]: C(C(=O)C(=O)O)Br [Bromopyruvate] + CC1(C)CCC(c2ccc(Cl)cc2)=C(CN2CCN(c3ccc(C(=O)NS(=O)(=O)c4ccc(N[C@H](CCN5CCOCC5)CSc5ccccc5)c(S(=O)(=O)C(F)(F)F)c4)cc3)CC2)C1 [Navitoclax] (partner 0.5 µM)
The assay is described as above. A digest of the protocol:
as §1

For EBC-1, the relative viability was 0.0878 with Bicalutamide + Foretinib (first compound 0.08 µM); 0.115 with Bicalutamide + Foretinib (first compound 0.253 µM); 0.0994 with Bicalutamide + Foretinib (first compound 0.8 µM); 0.121 in the assay with Bicalutamide + Foretinib (first compound 2.53 µM); 0.448 in assay [1] (first compound 1 µM); 0.528 in assay [1] (first compound 3.162 µM). Besides, the relative viability turned out to be 0.433 in assay [1] (first compound 10 µM), 0.453 in assay [1] (first compound 31.62 µM) and 0.358 in assay [1] (first compound 100 µM).
